Experimental data reported in PMC11125126, “Synthesis, Characterisation, and In Vitro Evaluation of Biocompatibility, Antibacterial and Antitumor Activity of Imidazolium Ionic Liquids” (Pharmaceutics, 2024).
Where two headings read alike, the source gives them in different places.

Key:
[1] = test system: HDF cells; assay: Indirect cytotoxic test (ISO 10993-5 elution) of IL-loaded PVC, Alamar blue; format: cell-based, human; settings: IL loaded into the PVC matrix at 0.5 and 1 wt%; 24 h elution, 24 h exposure
Procedure: Indirect test: ISO 10993-5, which provides test procedures to evaluate the in vitro cytotoxicity of medical devices, was employed to test biocompatibility. The elution test was conducted by incubating the material in a sterile DMEM solution (extraction vehicle prepared as described earlier) at a ratio of 0.1 g/1.0 mL at 37 °C (following ISO 10993-12 guidelines). After 24 h of elution time, the conditioned media (eluants) were collected, and 200 µL were pipetted into a 96-well plate previously seeded with HDF cells at 80% confluence. The plate was incubated for an additional 24 h (exposure time).
Cell viability was assessed in both cases using the Alamar blue assay, as described earlier. Furthermore, immunofluorescence microscopy was utilised to examine cell-material interactions and their spread using a fluorescent dye. Specifically, HDF cells were labelled with CellTracker^TM Red CMTPX (Invitrogen, Milan, Italy) in a 75 cm^2 cell culture flask, trypsinised, and then seeded onto IL-loaded polymer substrates. The cells were then incubated for 24 h at 37 °C. […]
To assess the possibility of developing substrates for use in various biomedical applications, from drug delivery to tissue engineering or as an antimicrobial coating, the biocompatibility of ionic-liquid-loaded polymeric substrates (ILs) was also evaluated using indirect and direct cytotoxicity assays. […]

[2] = test system: Pseudomonas fluorescens; assay: MIC/MBC by broth dilution, pure ILs; format: cell-based; settings: 24 h; for MBC: read-out: MBC; for MIC: read-out: MIC
Description: Within the Di3A (Dipartimento di Agricoltura, Alimentazione e Ambiente, University of Catania, Italy) microbial collection, two Gram-negative strains (Escherichia coli and Pseudomonas fluorescens) and one Gram-positive strain (Listeria monocytogenes) were studied in order to define the potential efficacy of ionic liquids in relation to the different structure of the bacterial cell wall.
For the pure ILs, the minimal inhibitory concentration (MIC) and minimal bactericidal concentration (MBC) were determined in Nutrient Broth (NB, Oxoid, Basingstoke, UK) medium by broth dilution method, according to the Clinical and Laboratory Standards Institute (CLSI).
All the bacterial strains were individually grown for 24 h at 35 or 27 °C for P. fluorescens, with shaking. After the incubation period, the cells were collected by centrifugation and re-suspended in sterile NB to obtain a stock culture of 10^9 CFU/mL. […]
Tubes were incubated at 35 or 27 °C in an orbital shaker and evaluated for the viable count of E. coli, P. fluorescens, and L. monocytogenes after 24 h by spread-plating 100 µL of each suspension on Nutrient Agar (NA, Oxoid, Basingstoke, UK) incubated for 24–48 h at 35 or 27 °C.
In this study, MIC and MBC are expressed in both µg/mL and µM to make the comparison with the literature data easy. Each experiment was performed in triplicate.

[3] = test system: MCF7 cancer cells; assay: Direct cytotoxicity test of IL powders, Alamar blue assay; format: cell-based, human; settings: Homo sapiens, 24 h of incubation
Procedure: (§1) Cytotoxicity studies on IL powders were carried out using human dermal fibroblast (HDF) cells (Sigma-Aldrich) and a human breast cancer cell line (MCF7). In addition, ILs loaded in PVC polymer substrates were tested for their cytocompatibility and adhesion properties on the HDF. HDF cells were cultured in 75 cm^2 cell culture flask in Dulbecco’s Modified Eagle’s Medium (DMEM) supplemented with 20% Foetal Bovine Serum (FBS), 1% non-essential amino acid (NEAA), antibiotic solution (streptomycin 100 µg/mL and penicillin 100 U/mL, Sigma Aldrich) and 2 mM L-glutamine. MCF7 cells were grown in DMEM with 10% FBS and the same antibiotics as mentioned above. The cells were maintained in a culture at 37 °C, with 5% CO2 and 95% humidity to achieve a confluent layer. Control cells were cultured in a complete medium without any compounds in tissue culture plates. Before biological testing, the samples were sterilised using a UV light for 2 h.
(§2) A direct cytotoxicity test was used to assess the in vitro cytotoxicity of IL powders. IL powders with different alkyl chains were dissolved in DMEM media to obtain solutions at various concentrations (0.5–1–5 and 10 µg/mL) to determine the best formulation.
(§3) After 24 h of incubation of IL solutions (200 µL) with seeded cells under specific environmental conditions (T = 37 °C, HR = 95%, CO2 = 5%), cell viability was tested using the Alamar blue assay (AbD Serotec, Milan, Italy) following the manufacturer’s instructions.
(§4) In summary, each well received a 200 µL aliquot of Alamar Blue^TM diluted 1:10 in phenol red-free medium and was incubated for 4 h at 37 °C, 5% CO2. Following this, 100 µL of the solution was transferred to a 96-well plate for colorimetric analysis. Wells with no cells were included to account for any background interference from the redox indicator. Optical density was immediately measured using a spectrophotometer (Victor X3, Perkin Elmer, Waltham, MA, USA) at 560 and 595 nm wavelengths. The results were presented as a percentage of cell viability compared to that of the control (cells grown on tissue culture plates).
(§5) Here, the antitumor activity and cytotoxicity of the synthetised imidazolium-based ionic liquids have been determined for breast cancer cells (MCF-7) and healthy human fibroblast (HDF) cells. […] Table 5 reports the IC50 values in µg/mL and µM to make their comparison with the literature data easy.

[4] = test system: HDF cells; assay: as above; format: cell-based, human; settings: Homo sapiens, 24 h of incubation
Procedure: as §1, §2, §3, §4, §5

[5] = NI = no inhibition at IL maximum concentration used (1000 µM)

CCCCCCCCCCn1cc[n+](C)c1.F[B-](F)(F)F [C10mimBF4]
HDF cell viability, indirect cytotoxic test [1]: good cell survival
MBC ([2]; 10^6 CFU/mL): 155 µg/mL
MIC ([2]; 10^6 CFU/mL): 38.8 µg/mL
MBC [2, 5]: 500 µM
MIC [2, 5]: 125 µM
IC50 ([3]; n = 3): 7.39 µg/mL
IC50 ([3]; n = 3, mean ± SD): 23.8 µM
IC50 ([4]; n = 3): 13.5 µM
IC50 ([4]; n = 3, mean ± SD): 4.18 ± 0.03 µg/mL
